Patent publication US20250032489A1, “MIXED LINEAGE KINASE INHIBITORS AND METHODS OF USE” (The U.S.A., as represented by the Secretary, Department of …, priority 2022, published 2025)
Where two headings read alike, the source gives them in different places. Where a SMILES comes first, the peptide text is derived from it. The star is where a group is joined. Cbz = O=C(OCc1ccccc1)*

Experiments:
[1] = PAMPA (parallel artificial membrane permeability assay); type: in vitro ADME
Description: (§1) Substituents were varied to improve binding affinity to LZK and selectivity over DLK. KD values were measured by Eurofins DiscoveRx using the Kd-Elect system. Parallel artificial membrane permeability assay (PAMPA) values were measured by Cyprotex.

c-MYC = test: Western blot of c-MYC abundance; type: cell-based; details: CAL33 and BICR56 cells depleted of LZK for 48 hours, 10 μM for six hours
Description: Generally, cells were plated in six-well or 35-mm plates for 24 hours, after which doxycycline was added or treatment with specific inhibitor was administered using 5% FBS media for 48 hours. After appropriate treatment time, cells were washed with ice-cold phosphate-buffered saline without Ca and Mg (Quality Biological) and then lysed on ice with RIPA buffer ([…], 1.0% IGEPAL® CA-630, 0.5% sodium deoxycholate, 0.1% SDS, 50 mM Tris, pH 8.0) (Sigma-Aldrich) supplemented with protease inhibitor tablet (Sigma-Aldrich) and phosphatase inhibitor cocktails 2 and 3 (Sigma-Aldrich) followed by centrifugation at 15,000 rpm for 10 minutes at 4° C. Protein concentrations were determined from the cell lysate by using 660 nm Protein Assay Reagent (Pierce). Cell extracts were denatured, subjected to SDS-PAGE, transferred to PVDF membranes (Bio-Rad) and blocked for 2 hours using 5% bovine serum albumin (BSA) in phosphate-buffered saline and 0.1% Tween® 20 (PBS-T). The membranes were incubated with the specific antibodies overnight in 5% BSA/PBST at 4° C. followed by a 1 hour incubation with the appropriate horseradish peroxidase-conjugated secondary antibodies and signal was detected by chemiluminescence (Thermo Fisher).

LZK [2] = molecular target: T1, LZK (Homo sapiens (Human), UniProt O43283); test: KD determination, Eurofins DiscoveRx Kd-Elect; type: binding
Description: as §1
(§2) KD values were calculated with a standard dose-response curve using the Hill equation: […]
(§3) The Hill Slope was set to −1. Curves were fitted using a non-linear least square fit with the Levenberg-Marquardt algorithm.

LZK [3] = molecular target: T1, LZK; test: Phospho-JNK ELISA in doxycycline-induced CAL33 cells expressing LZK; type: cell-based; details: for Phospho-JNK levels: 1 μM LZK inhibitor, 1 hour, compared to GNE-3511 control
From the text: The ViraPower HiPerform T-REx Gateway Expression System (Invitrogen) was used to generate cells with tetracycline-inducible expression of LZK. In brief, wild-type (WT) or drug-resistant mutant (Q240S) LZK (cloned into pLenti6.3/TO/V5-DEST vector) and pLenti3.3/TR (for tetracycline repressor expression) were transfected into 293FT cells using Lipofectamine 2000 to generate lentiviral stock. Cell lines were generated by antibiotic selection (blasticidin [Gibco] and geneticin [Gibco]). Doxycycline (Sigma-Aldrich) was used at 1 μg/mL to induce LZK expression.
A PathScan® Phospho-SAPK/JNK (Thr183/Tyr185) Sandwich ELISA Assay (Cell Signaling Technology) was used for ELISA assays following the manufacturer's protocol. In general, 500,000 cells were plated and treated with doxycycline the following day where appropriate and incubated at 37° C. for 48 hours. Cells were treated with the drug compound or control in 5% FBS media for 1 hour. After appropriate treatment time, cells were lysed on ice with 1× Cell Lysis Buffer (Cell Signaling Technology) supplemented with phosphatase and protease inhibitors (Sigma). Each diluted cell lysate was added to Phospho-SAPK/JNK (Thr183/Tyr185)Rabbit mAb Coated microwells in triplicate and incubated overnight at 4° C. Samples were treated with the following antibodies and incubated at 37° C. for 1 hour and 30 minutes, respectively: Detection Antibody and HRP-Linked secondary antibody. Samples were washed between treatments using 1× Wash Buffer according to the manufacturer's protocol. TMB substrate was added to each well and incubated at 37° C. for 10 minutes. Following this, STOPsolution was added to each well and absorbance was measured at 450 nm using iMark™ Microplate Absorbance Reader (Bio-Rad). Graphs display relative phospho-JNK levels.

DLK = DLK (Homo sapiens (Human), UniProt Q12852); test: KD determination, Eurofins DiscoveRx Kd-Elect; type: binding
Description: as §1, §2, §3

OVCAR5 cells = test: Colony formation assay; type: cell-based
Description: (§4) Crystal violet assays were used to assess relative cell growth and survival after treatment with specific compounds. In general, cells were plated in triplicate in 12-well plates for 24 hours before drug treatments were added using 10% FBS media. The plates were incubated for 14 days, with the media and drug being replaced every 48 hours. The cells were then washed with phosphate-buffered saline and fixed in ice-cold methanol before being stained with 0.5% crystal violet (Sigma-Aldrich) in 25% methanol. Images were taken using a ChemiDoc MP Imaging System (Bio Rad), and for quantification, the crystal violet stain was dissolved in 33% acetic acid, incubated for 20 minutes with shaking, and read at 595 nm using iMark™ Microplate Absorbance Reader (Bio-Rad). Graphs display percent colony formation relative to the DMSO-treated control sample.

KYSE70 cells = test: Colony formation assay; type: cell-based
Description: as §4

T1 sequence (O43283 whole entry): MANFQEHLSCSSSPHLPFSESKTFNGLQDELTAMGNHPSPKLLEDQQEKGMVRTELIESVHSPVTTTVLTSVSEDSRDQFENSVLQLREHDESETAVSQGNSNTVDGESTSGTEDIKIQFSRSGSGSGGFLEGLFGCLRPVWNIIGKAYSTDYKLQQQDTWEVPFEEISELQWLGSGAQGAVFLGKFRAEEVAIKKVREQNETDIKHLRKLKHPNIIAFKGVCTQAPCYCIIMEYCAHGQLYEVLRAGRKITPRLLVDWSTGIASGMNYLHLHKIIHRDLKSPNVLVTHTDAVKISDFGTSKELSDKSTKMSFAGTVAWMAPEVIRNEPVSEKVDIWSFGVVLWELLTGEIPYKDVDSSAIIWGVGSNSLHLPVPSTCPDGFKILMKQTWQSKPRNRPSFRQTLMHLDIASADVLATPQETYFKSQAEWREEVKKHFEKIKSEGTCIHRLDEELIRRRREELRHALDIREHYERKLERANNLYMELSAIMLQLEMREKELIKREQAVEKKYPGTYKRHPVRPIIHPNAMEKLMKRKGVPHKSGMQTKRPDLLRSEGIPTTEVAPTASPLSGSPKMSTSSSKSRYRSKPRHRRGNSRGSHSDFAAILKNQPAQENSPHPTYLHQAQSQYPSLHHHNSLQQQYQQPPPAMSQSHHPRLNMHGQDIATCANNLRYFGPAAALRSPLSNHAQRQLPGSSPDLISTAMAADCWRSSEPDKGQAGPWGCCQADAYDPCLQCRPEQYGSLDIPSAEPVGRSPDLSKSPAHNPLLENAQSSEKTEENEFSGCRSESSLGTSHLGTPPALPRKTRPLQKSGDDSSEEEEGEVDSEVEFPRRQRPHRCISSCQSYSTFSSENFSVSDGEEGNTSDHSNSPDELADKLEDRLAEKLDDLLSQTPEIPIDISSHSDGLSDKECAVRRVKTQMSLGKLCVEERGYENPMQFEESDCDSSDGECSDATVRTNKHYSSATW
DLK, sequence (Q12852 whole entry): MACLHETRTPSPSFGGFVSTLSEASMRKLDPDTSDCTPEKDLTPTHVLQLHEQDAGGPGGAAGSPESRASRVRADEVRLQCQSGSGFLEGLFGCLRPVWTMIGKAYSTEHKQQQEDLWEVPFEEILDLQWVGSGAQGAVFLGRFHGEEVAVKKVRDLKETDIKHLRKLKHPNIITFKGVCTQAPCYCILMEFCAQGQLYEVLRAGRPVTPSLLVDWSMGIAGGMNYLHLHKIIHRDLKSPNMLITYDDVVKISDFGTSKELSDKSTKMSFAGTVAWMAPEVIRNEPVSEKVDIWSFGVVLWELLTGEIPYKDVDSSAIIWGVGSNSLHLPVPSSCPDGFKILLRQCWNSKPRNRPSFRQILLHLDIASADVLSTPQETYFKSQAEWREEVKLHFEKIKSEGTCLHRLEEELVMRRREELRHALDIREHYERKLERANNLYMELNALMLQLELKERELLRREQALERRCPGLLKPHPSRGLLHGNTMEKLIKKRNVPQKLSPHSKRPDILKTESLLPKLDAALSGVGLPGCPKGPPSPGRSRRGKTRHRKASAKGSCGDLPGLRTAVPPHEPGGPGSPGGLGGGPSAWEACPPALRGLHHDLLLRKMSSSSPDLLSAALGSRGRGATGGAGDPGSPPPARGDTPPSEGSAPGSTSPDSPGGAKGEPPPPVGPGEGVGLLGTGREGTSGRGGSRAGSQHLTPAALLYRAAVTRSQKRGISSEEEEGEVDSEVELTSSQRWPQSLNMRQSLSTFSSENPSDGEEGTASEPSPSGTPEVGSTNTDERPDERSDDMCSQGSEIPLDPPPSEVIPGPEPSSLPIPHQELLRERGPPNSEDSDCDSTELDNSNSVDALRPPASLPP

In the case of CC(=O)NC12CC(n3cc(-c4cnc(N)c(OC(F)(F)F)c4)nc3C(O)C(C)C)(C1)C2 (stereo not drawn) [DLK-IN-2, reference compound], the Mean permeability ([1]; PAMPA) is reported as 0.5352 10^−6 cm/sec.
With CC(C)C(O)c1nc(-c2cnc(N)c(OC(F)(F)F)c2)cn1C12CC(N)(C1)C2 (stereo not drawn) [DLK-IN-3, reference compound] the Mean permeability ([1]; PAMPA) was 2.9021 10^−6 cm/sec.
In the case of CC(C)C[C@@H](C=O)NC(=O)[C@H](CC(C)C)NC(=O)[C@H](CC(C)C)NC(=O)OCc1ccccc1 [MG132] (Cbz-Leu-Leu-Leu-aldehyde), the “c-MYC levels in cells depleted of LZK” value (c-MYC) is reported as “rescued decreases in the c-MYC levels”.
With CC(=O)NC12CC(n3cc(-c4cnc(N)c(C(F)(F)F)n4)nc3C(O)C(C)C)(C1)C2 (stereo not drawn) [compound 44] the Kd (LZK [2]; read-out: Kd values) was 0.094 µM.
In the case of CC(=O)NC12CC(n3cc(-c4cnc(N)c(C#N)n4)nc3C(O)C(C)C)(C1)C2 (stereo not drawn) [compound 45], the Kd (LZK [2]; read-out: Kd values) is reported as 0.44 µM.
For CC(=O)NC12CC(n3cc(-c4cnc(N)cn4)nc3C(O)C(C)C)(C1)C2 (stereo not drawn) [compound 46], the Kd (LZK [2]; read-out: Kd values) was > 10 µM.
For CC(=O)N1CCC(c2cc(Nc3cnccn3)nc(N3CCC(F)(F)C3)c2)CC1 [compound 100], the Mean permeability [1] was 16.9436 10^−6 cm/sec, the PAMPA [1] was 16.94 and the “Inhibition of downstream JNK pathway activation” value (LZK [3]; ELISA assay) was “effective inhibitor”.
With CC(=O)N1CCC(c2cc(Nc3ccn(C)n3)nc(N3CCC(F)(F)C3)c2)CC1 [compound 101] the Kd (LZK [2]; in μM, read-out: LZK KD) was > 10 µM and the Kd (DLK; in μM) was > 10 µM.
With CC(=O)N1CCC(c2cc(Nc3cc4[nH]ccc4cn3)nc(N3CCC(F)(F)C3)c2)CC1 [compound 104] the Kd (LZK [2]; in μM, read-out: LZK KD) was > 10 µM and the Kd (DLK; in μM) was > 10 µM.
For CC(=O)N1CCC(c2cc(Nc3cnc(C)cn3)nc(N3CCC(F)(F)C3)c2)CC1 [compound 107], the Phospho-JNK levels (LZK [3]) was “particularly effective”.
With CC(=O)N1CCC(c2cc(Nc3cncc(C)n3)nc(N3CCC(F)(F)C3)c2)CC1 [compound 108] the Kd (LZK [2]; in μM, read-out: LZK KD) was > 10 µM and the Kd (DLK; in μM) was > 10 µM.
With CC(=O)N1CCC(c2cc(Nc3nccnc3C)nc(N3CCC(F)(F)C3)c2)CC1 [compound 109] the Kd (LZK [2]; in μM, read-out: LZK KD) was > 10 µM and the Kd (DLK; in μM) was > 10 µM.
In the case of CC(=O)N1CCC(c2cc(Nc3cnc4ccccc4n3)nc(N3CCC(F)(F)C3)c2)CC1 [compound 112], the Kd (LZK [2]; in μM, read-out: LZK KD) is reported as > 10 µM and the Kd (DLK; in μM) is reported as > 10 µM.
CC(=O)N1CCC(c2cc(Nc3cn(C)cn3)nc(N3CCC(F)(F)C3)c2)CC1 [compound 114] gave a Kd (LZK [2]; read-out: LZK KD) of 1.5 µM and a Kd (DLK) of 1.2 µM.
COc1cnc(Nc2cc(C3CCN(C(C)=O)CC3)cc(N3CCC(F)(F)C3)n2)cn1 [compound 115] showed a Kd (LZK [2]; read-out: LZK KD) of 0.3 µM.
With CC(=O)N1CCC(c2cc(Nc3ncccn3)nc(N3CCC(F)(F)C3)c2)CC1 [compound 117] the Kd (LZK [2]; in μM, read-out: LZK KD) was > 10 µM and the Kd (DLK; in μM) was > 10 µM.
In the case of Cc1cnc(Nc2cc(C3CCN(C4CCC4)CC3)cc(N3CCC(F)(F)C3)n2)cn1 [compound 162], the “dose-dependent inhibition of LZK” value (LZK [3]) is reported as “dose-dependent inhibition”.
Molecule Cc1cnc(Nc2cc(C3CCN(C4COC4)CC3)cc(N3CCC(F)(F)C3)n2)cn1 [compound 163] has a Kd (LZK [2]; read-out: LZK KD) of 0.02 µM.
For Cc1cnc(Nc2cc(C3CCN(C4CCCC4)CC3)cc(N3CCC(F)(F)C3)n2)cn1 [compound 164], the “sensitivity (colony formation)” value (OVCAR5 cells) was “sensitive”, the “dose-dependent inhibition of LZK” value (LZK [3]) was “dose-dependent inhibition” and the Phospho-JNK levels (LZK [3]) was “more effective than GNE-3511”. It also gave an IC50 (LZK [3]; read-out: inhibition of LZK IC50) of ~100 nM.
With CC(=O)N1CC(c2cc(Nc3cnc(C)cn3)nc(N3CCC(F)(F)C3)c2)C1 [compound 165] the “increase of Kd for DLK over the parent (107)” value (DLK) was 6 fold.
CC(=O)N1CCC(c2cc(Nc3cnc(C)cn3)nc(N(C)CC3CC3)c2)CC1 [compound 186] showed a Kd (LZK [2]; read-out: LZK KD) of 0.09 µM.
CC(=O)N1CCC(c2cc(Nc3cnc(C)cn3)nc(N3CCOCC3)c2)CC1 [compound 191] showed a Kd (LZK [2]; read-out: LZK KD) of 0.23 µM and a Kd (DLK) of 0.17 µM.
With CC(=O)N1CCC(c2cc(Nc3cnc(C)cn3)nc(N3CCC(F)(F)CC3)c2)CC1 [compound 192] the Kd (LZK [2]; read-out: LZK KD) was 0.065 µM and the Kd (DLK) was 0.12 µM.
Molecule CC(=O)N1CCC(c2cc(Nc3cnc(C)cn3)nc(N3CCC4(CC4)C3)c2)CC1 [compound 201] has a Kd (DLK) of 0.02 µM.
Work on CC(=O)N1CCC(c2cc(Nc3cnc(C)cn3)nc(N3CC4CC(C4)C3)c2)CC1 [compound 204] yielded a Kd (LZK [2]; read-out: LZK KD) of 0.008 µM.
With CC(=O)N1CCC(c2cc(Nc3cnc(C)cn3)nc(N3CC4CC(C3)C4O)c2)CC1 (stereo not drawn) [compound 205] the Kd (DLK) was 0.1 µM.
With CC(=O)N1CCC(c2cc(Nc3cnc(C)cn3)nc(N3CC4CCC4C3)c2)CC1 (stereo not drawn) [compound 207] the “selectivity for LZK over DLK” value (LZK [2]; from KD values) was 180 fold, the Kd (LZK [2]; read-out: LZK KD) was 0.00097 µM and the Kd (DLK) was 0.18 µM.
With CC(=O)N1CCC(c2cc(Nc3cnc(C)cn3)nc(N3CCC4(CC3)CC4)c2)CC1 [compound 208] the Kd (DLK) was 0.1 µM.
With c1nc(C2CC2)cnc1Nc1cc(C2CCN(CC3CC3)CC2)cc(N2CC3CC3C2)n1 (stereo not drawn) [compound 216] the “sensitivity (colony formation)” value (KYSE70 cells) was “exquisitely sensitive”, the “sensitivity (colony formation)” value (OVCAR5 cells) was “exquisitely sensitive” and the Kd (DLK) was 0.002 µM.
CC(=O)N1CC(c2cc(Nc3cnc(C4CC4)cn3)nc(N3CC4CC4C3)c2)C1 (stereo not drawn) [compound 218] showed a Kd (DLK) of 0.03 µM.
With c1nc(C2CC2)cnc1Nc1cc(C2CN(CC3CC3)C2)cc(N2CC3CC3C2)n1 (stereo not drawn) [compound 219] the “sensitivity (colony formation)” value (KYSE70 cells) was “exquisitely sensitive” and the “sensitivity (colony formation)” value (OVCAR5 cells) was “exquisitely sensitive”.
Molecule c1nc(C2CC2)cnc1Nc1cc(C2CN(CC3CC3)C2)cc(N2CC3CCC3C2)n1 (stereo not drawn) [compound 228] has a Kd (LZK [2]; read-out: LZK KD) of 0.007 µM.
